What was measured:
[1] = target: T1, Shikimate kinase (Helicobacter pylori (strain ATCC 700392 / 26695) (Campylobacterpylori), UniProt P56073); assay: Binding affinity to Helicobacter pylori SS1 recombinant shikimate kinase expressed in BL21 (DE3) cells by SPR assay
[2] = target: T1, Shikimate kinase; assay: Inhibition of Helicobacter pylori SS1 recombinant shikimate kinase expressed in BL21 (DE3) cells by double coupled assay; format: cell-based
[3] = target: T1, Shikimate kinase; assay: Inhibition of Helicobacter pylori SS1 recombinant shikimate kinase expressed in BL21 (DE3) cells in presence of varying MgATP levels by double coupled assay; format: cell-based
[4] = target: T1, Shikimate kinase; assay: Inhibition of Helicobacter pylori SS1 recombinant shikimate kinase expressed in BL21 (DE3) cells in presence of varying shikimate levels by double coupled assay; format: cell-based

T1 sequence (P56073 whole entry): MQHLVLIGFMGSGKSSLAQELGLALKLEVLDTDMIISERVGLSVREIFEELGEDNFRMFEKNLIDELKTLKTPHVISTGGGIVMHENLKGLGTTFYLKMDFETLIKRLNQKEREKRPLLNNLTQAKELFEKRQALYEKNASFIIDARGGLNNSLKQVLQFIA

Compound | Kd [1] [µM] | IC50 [2] [µM] | Ki [2] [µM] | Ki [3] [µM] | Ki [4] [µM]
COc1cc(C=O)ccc1OCc1ccccc1COc1ccc(/C=C2/SC(=S)NC2=O)cc1OC | 4.39 | 5.5 | 9.48 | 7.18 | 10.7
O=C1NN(c2ccc(Cl)c(Cl)c2)C(=O)/C1=C\c1ccc(-c2ccc(Br)cc2C(=O)O)o1 | 3.74 | 6.4 | 2.19 | 7.92 | 

Source: ChEMBL document CHEMBL1144564, “Discovery of Helicobacter pylori shikimate kinase inhibitors: bioassay and molecular modeling” (Bioorg Med Chem, 2007)
